Where two headings read alike, the source gives them in different places.
Assays:
normal subject = test system: normal subject
Protocol: Five normal subjects were used as controls. One subject was used to investigate the effect of clonidine on normal skin (i.e., the top of the foot). The four remaining subjects were used to assess the effect of intradermal norepinephrine and phenylephrine in normal skin.
To exclude further local anesthetic effects of clonidine, a clonidine patch was applied to the top of a normal subject's foot and sensory testing was performed prior to and 40 hours after the patch application.

patients with SMP [1] = experiment: Intravenous phentolamine block in patients with SMP; type: in vivo, human
Protocol: If peripheral α-adrenergic receptors are blocked completely, skin temperature would approach core temperature. Such a blockage would produce profound hypotension and a reflex tachycardia. […] This dose ranged from 35 mg to 45 mg over a 30 minute period.
The heart rate, systolic and diastolic blood pressure changes produced by phentolamine in a typical patient were relatively mild. In the first seven patients phentolamine alone was administered.
The patient was diagnosed as having SMP and then underwent local LABSG, and the administration of phentolamine systemically by intravenous injection.
Seventeen patients received both phentolamine and LABSG. The time of maximum relief of stimulus evoked pain correlated highly with the time at which there was maximum relief of stimulus-independent pain. All pain scores were converted to percent pain relief. The peak relief of stimulus independent pain for the LABSG compares favorably to the peak relief obtained from the phentolamine block. […] Patients with less than 50% pain relief from both procedures were considered to have pain independent of SMP. There was a high correlation of the results of the two procedures (r=0.78).

patients with SMP [2] = conditions: cited from earlier work; for effect on pain in patients with SMP: in vivo
α1 and α2 receptors = conditions: cited from earlier work
[3] = in vivo; cited from earlier work
healthy control subjects = experiment: Intradermal norepinephrine and phenylephrine in normal skin of control subjects; type: in vivo, human
Protocol: Five normal subjects were used as controls.
Effects of Intradermal Norepinephrine and Phenylephrine: In two patients, intradermal injections of the non-specific α-adrenergic agonist norepinephrine (5 μg in 10 μl normal saline) or the α-adrenergic agonist phenylephrine (10 μg in 10 μl normal saline) were made at a patch site immediately after removing the patch. […] All injection were made in a single-blinded fashion. The patients and control subjects were instructed to rate the magnitude of any evoked pain and resultant hyperalgesia on a verbal scale from 0 to 10.

patients with SMP [4] = experiment: Intradermal norepinephrine and phenylephrine in SMP patients (clonidine patch site, normal site)
Protocol: Effects of Intradermal Norepinephrine and Phenylephrine: In two patients, intradermal injections of the non-specific α-adrenergic agonist norepinephrine (5 μg in 10 μl normal saline) or the α-adrenergic agonist phenylephrine (10 μg in 10 μl normal saline) were made at a patch site immediately after removing the patch. Norepinephrine and phenylephrine injections were also made at control sites on the patients' normal limb and into the normal skin of 4 healthy control subjects. […] All injection were made in a single-blinded fashion. The patients and control subjects were instructed to rate the magnitude of any evoked pain and resultant hyperalgesia on a verbal scale from 0 to 10.

Excerpt for patients with SMP or SIP: Patient Selection and Control Subjects: Six normotensive patients with chronic ongoing pain and cutaneous hyperalgesia to mechanical and cooling stimuli following soft tissue or nerve trauma were examined. All patients had previously undergone sympathetic blocks (i.e., local anesthetic blockade of the appropriate sympathetic ganglia) to assess the involvement of the sympathetic nerves in their pain state.
A series of 2-7 patches were applied consecutively to different sites within the hyperalgesic zone. Each patch was left in place for 2-10 days within this affected zone. Prior to, during and immediately after drug application, the following parameters were monitored: heart rate, blood pressure, ongoing pain and pain to mechanical and cold stimuli.
The scale consisted of a 100 mm line where “no pain” and “most intense pain” were indicated on the left and right ends of the scale respectively. […] The mechanical stimuli included innocuous brushing with a camel's hair brush and innocuous pressure from the 206 g weight of a 13 mm diameter (i.e., 2N) brass probe. Pain thresholds to mechanical stimuli were determined in the area within and surrounding the patch sites using calibrated von Frey filaments. The cooling stimulus consisted of small drops of acetone lightly placed onto the patient's skin. […] 3) Tactile sensibility: To rule out local anesthetic effects, the detection (touch) thresholds were determined in the area within the surrounding selected patch sites using calibrated von Frey filaments. In addition, the patient's ability to distinguish the blunt from the sharp ends of a pin was also assessed. The patients were instructed to close their eyes during the hyperalgesia and von Frey threshold testing procedures.

Clc1cccc(Cl)c1N=C1NCCN1 [clonidine]
detection or pain threshold to mechanical stimuli in a normal subject (normal subject; Example 2, test for local anesthetic effect): did not alter | pain and detection threshold to von Frey filaments (normal subject; top of normal subject's foot, 40 hours after patch application): Neither the pain nor detection threshold to von Frey filaments were affected | time to reduction of pain evoked by deep pressure, light brushing and cooling stimuli (patient with SMP; after patch application): 24 to 36 h | time to complete abolition of evoked pain (patient with SMP; following patch application): ≤ 48 h | persistence of effect after removal of the patch (patient with SMP; human, in vivo): more than 24 hours | adverse side effects, cardiovascular parameters (patient with SMP; same patient): no adverse side effects or changes in cardiovascular parameters | hyperalgesia of skin surrounding the patch (patient with SMP; same patient): remained hyperalgesic | relief of hyperalgesia in the skin underlying the patch (patient with SMP; sciatic nerve injury patient, 0.2 or 0.3 mg/day patch, 6 patches, 2-10 days each): Complete relief | detection threshold to mechanical stimuli in the patient (patient with SMP; test for local anesthetic effect): did not alter | mechanical detection thresholds inside and outside the patch site (patients with SMP or SIP; Case 1): identical | pain threshold to von Frey filaments within the patch site (patients with SMP or SIP; Case 1): approximated the patient's ‘normal’ pain threshold | ratings of stimulus-independent pain (patients with SMP or SIP; Case 1): not affected | time hyperalgesia still absent after removing a patch (patients with SMP or SIP; Case 1): at least 12 hours | Mechanical Hyperalgesia: post-clonidine (patients with SMP or SIP; Case 1, SMP, lower extremity): − | Touch Detection Threshold: post-clonidine (patients with SMP or SIP; Case 1, SMP, pre-clonidine 4): 4 bars | ability to distinguish sharp from blunt stimuli (patients with SMP or SIP; Case 1, after patch removal): not affected | mechanical (brush, pressure) and cooling (acetone) stimuli at patch site (patients with SMP or SIP; Case 1, after removal of patch applied for 36 hours): detected but were not painful | pain rating to light brushing at patch site (patients with SMP or SIP; Case 1, after removal of patch, before norepinephrine injection, untreated skin 4 out of 10): 1 out of 10 | detection thresholds (patients with SMP or SIP; Case 1, four patches (FIG. 2)): unchanged | hyperalgesia to mechanical stimuli (patients with SMP or SIP; Case 1, four patches with quantitative sensory testing (FIG. 2)): greatly reduced and, in many cases, completely eliminated | return of hyperalgesia (patients with SMP or SIP; Case 1, from patch application): within less than a week | time to reduction of mechanical hyperalgesia after patch applied (patients with SMP or SIP; Case 1, noted by patient): 36 to 48 h | Mechanical Hyperalgesia: post-clonidine (patients with SMP or SIP; Case 2, SMP, lower extremity): − | Touch Detection Threshold: post-clonidine (patients with SMP or SIP; Case 2, SMP, pre-clonidine 1): 1 bars | Touch Detection Threshold: post-clonidine (patients with SMP or SIP; Case 3, SMP, pre-clonidine 1.5): 1.5 bars | reduction of ongoing pain (patients with SMP or SIP; Case 4): 50-75% | Mechanical Hyperalgesia: post-clonidine (patients with SMP or SIP; Case 4, SMP, face): − | Touch Detection Threshold: post-clonidine (patients with SMP or SIP; Case 4, SMP, pre-clonidine 0.5): 0.5 bars | relief of hyperalgesia throughout entire affected zone (patients with SMP or SIP; Case 4, application to the upper lip): complete relief of hyperalgesia | Mechanical Hyperalgesia: post-clonidine (patients with SMP or SIP; Case 5, SIP, upper extremity): + | hyperalgesia and ongoing pain (patients with SMP or SIP; Case 5, SIP, application to palmar aspect of the hand): Neither the patient's hyperalgesia nor ongoing pain were improved | Touch Detection Threshold: post-clonidine (patients with SMP or SIP; Case 5, SIP, pre-clonidine 1): 1 bars | hyperalgesia to cold stimuli (patients with SMP or SIP; Case 6, SIP): not affected | Mechanical Hyperalgesia: post-clonidine (patients with SMP or SIP; Case 6, SIP, lower extremity): + | reduction in ongoing pain and mechanical hyperalgesia to brush stimuli (patients with SMP or SIP; Case 6, SIP, patches on dorsum of the foot): approximately 35% | Touch Detection Threshold: post-clonidine (patients with SMP or SIP; Case 6, SIP, pre-clonidine 2): 2 bars | overall level of stimulus-independent pain (patients with SMP or SIP; Cases 2, 3): did not report any reduction | extent of hyperalgesia relief (patients with SMP or SIP; Cases 2, 3, zone greater than half of lower extremity): only eliminated hyperalgesia at or near the site of drug application | alteration in blood pressure or heart rate (patients with SMP or SIP; any of the patients): No appreciable alteration | pain or hyperalgesia (summary) (patients with SMP or SIP; cases 5 and 6, pain independent of the sympathetics): little effect on pain or hyperalgesia | skin reaction surrounding the patch site (patients with SMP or SIP; following some patch applications, treatment discontinued in cases 1, 4): erythematous rash | mechanical and cold hyperalgesia at the site of drug administration (summary) (patients with SMP or SIP; patients with SMP): significantly reduced mechanical and cold hyperalgesia | side effects from clonidine patches (patients with SMP or SIP; six patients): minor

CC(C)NCC(O)COc1cccc2ccccc12 (stereo not shown) [propranolol]
effect on pain when added after α-adrenergic blockade (patients with SMP [1]; 0.5 mg intravenously, five minutes after last phentolamine dose): did not add appreciably to the analgesia | effect on pain in patients with SMP (patients with SMP [2]): little effect on SMP

Cc1ccc(N(CC2=NCCN2)c2cccc(O)c2)cc1 [phentolamine]
pain relief following the blocks (local anesthetic sympathetic ganglion block, i.v. phentolamine) (patients with SMP [1]; Example 3 cases 1-4 (case 2 had no phentolamine block)): 70-100% | effect of block on pain (patients with SMP [1]; Example 3 cases 5, 6 (SIP)): not affected | side effect: dizziness (patients with SMP [1]; IV phentolamine): 2 patients | side effect: headache (patients with SMP [1]; IV phentolamine): 3 patients | side effect: nasal stuffiness (patients with SMP [1]; IV phentolamine): 12 patients | pain relief in patients with SMP (preliminary studies) (patients with SMP [1]; cumulative dose 35 mg to 45 mg over a 30 minute period): effectively relieved pain | heart rate change (patients with SMP [1]; first seven patients, phentolamine alone): increased moderately | time for pain to return to within 75% of baseline (patients with SMP [1]; five patients with more than 50% pain relief from phentolamine block): 2 to 7 h | pain relief with the phentolamine block (patients with SMP [1]; one patient with 45% maximum relief with LABSG): no relief | pulse rate change (patients with SMP [1]; patients pretreated with propranolol 1-2 mg): minimal increase | mean pain relief (patients with SMP [1]; patients who had 50% or greater pain relief following LABSG): 75% | reduction in pain as measured by visual analysis scores (patients with SMP [1]; person, SMP right foot, IV, accumulated dose of 25 mg over 15 minutes): 80% | time course over which pain gradually returned (patients with SMP [1]; same patient): about three | time pain remained at low level (patients with SMP [1]; same patient, after last phentolamine dose): about two | patient's pain relieved (patients with SMP [1]; same patient, after two further injections each of 10 mg): over 80% | gradual decrease in stimulus-independent pain (patients with SMP [1]; same patient, first 4 boli IV, total dose 15 mg): about 50% | blood pressure change (patients with SMP [1]; supine, with or without propranolol): little effected | potency in inhibiting α1- relative to α2-adrenergic receptors (α1 and α2 receptors): three to five | plasma half-life [3]: approximately 20 minutes | effect on sympathetically-maintained pain and hyperalgesia (patients with SMP [2]; intravenous administration): rapidly abolishes sympathetically-maintained pain and hyperalgesia

CNC[C@H](O)c1cccc(O)c1 [phenylephrine]
pain and hyperalgesia after injections (healthy control subjects; control subjects, phenylephrine 10 μg): Only brief, mild pain sensations and no hyperalgesia | pain evoked at control site (volar forearm) (patients with SMP [4]; Case 4): moderate pain of shorter duration | ongoing level of pain (patients with SMP [4]; Case 4, approximately 25 minutes after injection): increased substantially | pain evoked by injection at clonidine patch site (patients with SMP [4]; Case 4, intradermal 10 μg in 10 μl saline, after 3 days of clonidine): intense stinging pain

NC[C@H](O)c1ccc(O)c(O)c1 [norepinephrine]
pain and hyperalgesia after intradermal injection into the leg (healthy control subjects; four control subjects, norepinephrine 5 μg): mild, short lasting pain and no hyperalgesia | pain or hyperalgesia in normal subjects (patients with SMP [2]; intradermal injection): does not cause pain or hyperalgesia | effect on pain and hyperalgesia relieved by sympathectomy or sympathetic block (patients with SMP [2]; intradermal injection, patients): rekindles the pain and hyperalgesia | pain evoked by injection at clonidine patch site (patients with SMP [4]; Case 1, intradermal 5 μg in 10 μl saline): intense, burning pain sensation | mechanical hyperalgesia rating at the patch site (patients with SMP [4]; Case 1, twenty-five minutes after injection): 3.5 out of 10 | pain and hyperalgesia after injection into normal limb (patients with SMP [4]; Cases 1 and 4, normal limb): evoked intense pain, but did not result in hyperalgesia

COc1cc2nc(N3CCN(C(=O)c4ccco4)CC3)nc(N)c2cc1OC [prazosin]
receptor subtype selectivity (α1 and α2 receptors): highly selective α1-blocking agent | effect on pain in patients with SMP (patients with SMP [2]): can be effective in relieving pain

CC(COc1ccccc1)N(CCCl)Cc1ccccc1 (stereo not shown) [phenoxybenzamine]
potency in blocking α1 (postsynaptic) receptors relative to α2 receptors (α1 and α2 receptors): approximately 100 fold | effect on pain in patients with SMP (patients with SMP [2]): can be effective in relieving pain

— patent USRE41998E1, “Compositions and methods of treatment of sympathetically maintained pain” (Arclon Therapeutics, Inc., priority 1990, dated 2010)
